From US20220348877A1, “GENERATION OF QUIESCENT CARDIAC FIBROBLASTS FROM HUMAN INDUCED PLURIPOTENT STEM CELLS FOR IN VITRO MODELING OF CARDIAC FIBROSIS” (The Board of Trustees of the Leland Stanford Junior …, priority 2019, published 2022)
Entries after “also recorded” stand apart in the source; their conditions may differ.

Assays:
human iPSC-CFs [1] = test: Collagen gel contraction assay; type: cell-based; conditions: gels imaged after 24 hrs
Experimental: Gel contraction assay. Collagen gel contraction assays were performed in three independent lines of iPSC-CFs (2.0×10^5 cells per well) using a Cell Contraction Assay kit (CBA5020, Cell Biolabs) as per the manufacturer's protocol. The cells were treated in the absence or presence of TGF-β±a TGF-β inhibitor SB431542 (SB). The gels were imaged after 24 hrs and gel area was quantified using ImageJ software (version 1.49).

human iPSC-CFs [2] = test: Quantitative real-time PCR of gene expression in drug-treated iPSC-CFs; type: cell-based
Experimental: (§1) Quantitative real-time PCR. Total RNA was isolated using the Qiagen miRNeasy Mini Kit (Qiagen Sciences, Inc, Germantown, Md.) following the manufacturer's instruction. For reverse transcription, a High Capacity RNA-to-cDNA kit (Life Technologies) was used, and the cDNA template was synthesized based on 1 μg of total mRNA. After mixing 0.2 μl of the cDNA template, 1 μl of TaqMan® primer sets (Life Technologies), 10 μl of TaqMan® Master Mix (Life Technologies), and 8.8 μl of ddH2O in the reaction system, real-time quantitative PCR was performed on the StepOne™ Real-Time PCR System (Life Technologies). Each reaction was run in triplicate. Expression values were normalized to the average expression of GAPDH.
(§2) Drug treatment. Unless otherwise stated, cells were treated with all drugs for 48 hrs. We used 5 ng/ml of TGFβ1 (240-B-010, R&D) to activate iPSC-CFs. Due to the short half-life, BNP (CYT-369, Prospec) was added into the medium three times a day. We used 20 μM of sacubitril (SML1380, Sigma) to inhibit ANP/BNP degradation. We used pirfenidone (S2907, Selleck Chemicals) and doxorubicin (25316-40-9, Selleck Chemicals) to test their anti-fibrotic and pro-fibrotic effects on iPSC-CFs, respectively.

human iPSC-CFs [3] = test: Immunoblotting of α-SMA in drug-treated iPSC-CFs; type: cell-based
Experimental: (§3) Immunoblotting and quantification. Cultured cells were homogenized in the RIPA buffer with proteinase and phosphatase inhibitor cocktails (78440, ThermoFisher), and quantified by Pierce™ BCA Protein Assay Kit (Pierce Biotechnology Inc.). A total of 20 μg protein was separated on NuPAGE® Novex® 4-12% Bis-Tris Protein Gels (Invitrogen, Carlsbad, Calif.). After being transferred to Amersham™ Hybond™ Blotting Membranes (GE Healthcare), proteins were incubated with primary antibodies against α-SMA (ab7817, Abcam), periostin (ab14041, Abcam), collagen Ill (ab7778, Abcam), fibronectin (ab6328, Abcam), MYH7 (sc-53089, Santa Cruz), and GAPDH (MA5-15738, Invitrogen). Band intensities for target bands were analyzed and quantified by the ImageJ Fuji program.
as §2

human iPSC-CFs [4] = test: Flow cytometry (FACS) of α-SMA+ myofibroblast population; type: cell-based; conditions: for effect on TGF-β-induced upregulation of α-SMA / propagation of the α-SMA+ population: in presence of TGF-β, FIG. 5I
Experimental: Fluorescence-activated cell sorting (FACS) analysis. Cells were dissociated into singlets by TrypLE™ (12605, Gibco) for 10 min at 37° C., and the cell suspension was filtered through a 40-μm cell strainer (BD Falcon, San Diego) to remove cell clumps. Single cells were fixed and permeabilized by BD CytofixCytoperm™ buffer (BD 554722) for 20 min at 4° C. Next, cells were incubated with primary antibodies followed by Alexa Fluor™ secondary antibodies (Invitrogen). Primary antibodies against COLI (ab90395, Abcam), DDR2 (sc-81707, Santa Cruz), TCF21 (hpa013189, Sigma-Aldrich), α-SMA (ab7817, Abcam), and WT1 (ab89901, Abcam) were used. The percentage of fibroblasts was calculated as the ratio of TCF21+, DDR2+, and COL-1+ cells in the whole population, respectively. The percentage of myofibroblasts was calculated as the ratio of α-SMA+ cells in the whole population.
as §2

human iPSC-CFs [5] = test: CF differentiation and passaging in the presence of TGF-β inhibitor; type: cell-based
Experimental: Differentiation of human iPSC-derived cardiac fibroblasts. Human iPSCs were treated with 6 μM of CHIR99021 for 2 days, recovered in RPMI+B27-insulin for 24 hrs, treated with 5 μM of IWR-1 (10161, Sigma) for 2 days, and then RPMI+B27-insulin for another 24 hrs. On day 6, human induced pluripotent stem cell-derived cardiac progenitor cells (iPSC-CPCs) were re-plated at a density of 20,000 cells/cm2 in advanced DMEM medium (12634028, Gibco®, Life Technologies). On day 7 or 8, cells were treated with 5 μM of CHIR99021 and 2 μM of retinoic acid (R2625, Sigma-Aldrich) for 2 days, and recovered in advanced DMEM for 3 days. Typically, the purity of human induced pluripotent stem cell-derived epicardial cells (iPSC-EPCs) is >90% (WT1+). Human iPSC-EPCs were re-plated and treated with […] (100-18B, PeproTech) and 10 μM of SB431542 (S1067, Selleck chemicals) in a fibroblast growth medium for another 6 days. >90% purity of iPSC-CFs (COL-I+/DDR2+/TCF21+) can be achieved as assessed by FACS. Cultures were maintained in a humidified atmosphere (95% air, 5% CO2) at 37° C.
Differentiation of Quiescent Cardiac Fibroblasts from iPSC Derived Epicardial Cells. 1. On day 14, prepare fibroblast growth medium containing 20 ng/ml of FGF2 and 10 μM of SB431542. 2. Aspirate the spent medium, add 1 ml of Accutase per well in a 6-well plate, and incubate the plate in a […], 5% CO2 incubator for 5 min. […]

[6] = tested on: human iPSC-CFs co-cultured with iPSC-CMs; test: Indirect co-culture of iPSC-CFs with iPSC-CMs in the presence of TGF-β ± sacubitril (qPCR, immunoblot); type: cell-based
Experimental: as §1, §3, §2
Indirect and direct contact co-culture. […] As a control, iPSC-CMs were co-cultured with iPSC-CMs in the transwells. The co-cultures were incubated at 37° C. and 5% CO2 before analysis. For direct contact co-culture, we first labeled fibroblasts and iPSC-CMs with CFSE (C34554, Thermo Fischer) and Far cell trace red (C34564, Thermofisher) dyes, respectively. Then, iPSC-CFs were seeded on top of the iPSC-CM monolayer at a ratio of 1:5, allowing for direct cell-cell contact. After 5 days of co-culture, the two cell types were separated by FACS sorting for downstream molecular analyses. The medium used for co-culture is the mixture of RPMI+B27 and fibroblast growth medium at a ratio of 3:1.

human iPSC-CFs [7] = test: Sirius red colorimetric assay of secreted collagen, iPSC-CFs; type: cell-based; conditions: 48 hrs
Experimental: Colorimetric assays. The cells were treated in the absence or presence of TGF-β for 48 hrs. Quantification of total secreted collagen in the cell culture supernatant was performed using a Sirius red collagen detection kit (9062, Chondrex). The colorimetric assay was performed according to the manufacturer's protocol.

primary CFs = test: Sirius red colorimetric assay of secreted collagen, primary CFs; type: cell-based, human; conditions: 48 hrs
Experimental: (§4) Human primary skin, cardiac, lung, bladder fibroblast, and brain pericyte cultures. Human primary cardiac fibroblasts were isolated and cultured as follows: a piece of fresh right atrial biopsy was weighed, minced into small pieces (1-2 mm^3), and digested in 6-well peri-dishes as described. Human primary cardiac fibroblasts were grown and maintained in a fibroblast growth medium (C-23025, Promocell) supplemented with 1% penicillin-streptomycin (15140-122, Gibco) in a humidified atmosphere (95% air, 5% CO2) at 37° C. The medium was renewed every 2-3 days. Cells were passaged using standard trypsinization techniques at 80-90% confluency. The same protocol was also used to isolate and culture fibroblasts from human skin and lung tissues. Primary bladder fibroblasts were purchased from Lifeline (FC-0050) and maintained in the same fibroblast growth medium. Human brain pericytes were purchased from Cell systems (ACBRI 498) and cultured in SmGM-2 medium (Lonza, CC-3182). All experiments were carried out using cells at low cell passages (<P4) and cells were serum-starved for 24 hrs before treatment.
Colorimetric assays. The cells were treated in the absence or presence of TGF-β for 48 hrs. Quantification of total secreted collagen in the cell culture supernatant was performed using a Sirius red collagen detection kit (9062, Chondrex). […]

human primary CFs = test: Quantitative real-time PCR of cardiac-specific genes in primary CFs; type: cell-based
Experimental: as §4, with “All experiments were carried out using cells at low cell passages (<P4) and cells were serum-starved for 24 hrs before treatment.” left out
Quantitative real-time PCR. […] After mixing 0.2 μl of the cDNA template, 1 μl of TaqMan® primer sets (Life Technologies), 10 μl of TaqMan® Master Mix (Life Technologies), and 8.8 μl of ddH2O in the reaction system, real-time quantitative PCR was performed on the StepOne™ Real-Time PCR System (Life Technologies). […]

[8] = circulatory system; degrading enzyme neprilysin; cited from earlier work

## NC(=O)c1ccc(-c2nc(-c3ccc4c(c3)OCO4)c(-c3ccccn3)[nH]2)cc1 [SB431542, 4-[4-(1,3-benzodioxol-5-yl)-5-(2-pyridinyl)-1H-imidazol-2-yl]benzamide, reference compound]
Human iPSC-CFs [1]; TGF-β ± SB
  effect on TGF-β-induced collagen gel contraction: completely abrogated
Human iPSC-CFs [2]; TGF-β ± SB
  effect on TGF-β-induced upregulation of myofibroblast markers ACTA2 and POSTN: effectively inhibited
Human iPSC-CFs [3]; CFs from different human iPSC lines, TGF-β ± SB
  effect on TGF-β-induced increase of α-SMA protein levels: abolished
Human iPSC-CFs [4]
  effect on TGF-β-induced upregulation of α-SMA / propagation of the α-SMA+ population: significantly suppresses
Human iPSC-CFs [5]; SB added during CF differentiation, transcriptional and protein levels
  levels of smooth muscle marker genes (ACTA2, CNN1, TAGLN, SMTN, MYH11) in iPSC-CFs: negligible levels
Human iPSC-CFs [5]; until passage 5, inhibitor present in fibroblast growth medium
  αSMA+ cells (quiescent state preserved): ~5%

## COc1cccc2c1C(=O)c1c(O)c3c(c(O)c1C2=O)C[C@@](O)(C(=O)CO)C[C@@H]3O[C@H]1C[C@H](N)[C@H](O)[C@H](C)O1 [doxorubicin]
Human iPSC-CFs [4]; FIG. 5J, vs ctrl group
  induction of the α-SMA+ population (pro-fibrosis phenotype): dose-dependent pattern; also recorded: dose-dependent induction

## CCOC(=O)[C@H](C)C[C@@H](Cc1ccc(-c2ccccc2)cc1)NC(=O)CCC(=O)O [sacubitril]
[6]; TGF-β, 20 μM sacubitril
  mRNA levels of myofibroblast markers and ECM genes in the co-cultured condition: further decreased
  protein levels of myofibroblast markers and ECM genes in the co-cultured condition: further decreased
[6]; iPSC-CMs and iPSC-CFs co-culture
  anti-fibrotic effect seen in co-culture: significantly enhanced
[6]; only when added to the co-culture system
  myofibroblast marker periostin: significantly decreased

## Cc1ccc(=O)n(-c2ccccc2)c1 [pirfenidone]
Human iPSC-CFs [4]
  effect on TGF-β-induced upregulation of α-SMA / propagation of the α-SMA+ population: significantly suppresses
Human iPSC-CFs [4]; listed as Pirfenidone
  effect on TGF-β-induced upregulation of α-SMA / propagation of the α-SMA+ population: dose dependent inhibitory effect

## transforming growth factor-β [TGF-β]
Human iPSC-CFs [1]
  collagen gel contraction effect vs vehicle group: stronger
Human iPSC-CFs [2]; 5 ng/ml TGFβ1, 48 hrs
  expression levels of ACTA2 and POSTN vs vehicle treatment: significantly increased
Human iPSC-CFs [2]; vs vehicle
  expression levels of ECM genes COL1A1, COL3A1, COL4A2, FN1: significantly increased
  expression of MMP1: downregulation
  expression of MMP2: upregulation
  expression of TIMP1, TIMP2, TIMP3: upregulation
  expression of proteoglycans (VCAN, CTGF, KAL1, TNC, SPARC) and focal adhesion molecules (ITGA4, ITGA5, ITGB5): upregulated expression
Human iPSC-CFs [3]; CFs from different human iPSC lines
  α-SMA protein levels after treatment: significantly increased
Human iPSC-CFs [7]
  secreted collagen content: rise in collagen content
Primary CFs
  secreted collagen content: rise in collagen content
Human primary CFs
  expression levels of cardiac-specific genes (GATA4, TBX20, TCF21) vs vehicle-treated cells: significantly downregulated

## brain natriuretic peptide [BNP]
Human iPSC-CFs [2]; in the presence of TGF-β
  mRNA levels of CF markers (PDGFRA and TCF21): higher levels
  mRNA levels of myofibroblast markers and ECM genes (ACTA2, POSTN, COL1A1, COL3A1): significantly lower
Human iPSC-CFs [3]; in the presence of TGF-β, dose-dependent manner
  α-SMA protein levels with escalating concentrations: significantly suppressed
[8]
  half-life: 20 min

## atrial natriuretic peptide [ANP]
[8]
  half-life: 3 min
